From patent US7824710B2, “Crystalline and stable form of andolast” (Rottapharm S.p.A., priority 2006, dated 2010)
Values joined by “and” are separate entries in the source; they are usually repeats but may differ in a detail not shown here. Identical values can stand only once. Like-named read-outs stand apart in the source and are kept apart here.

Experiments:
Format in all cases: physicochemical
[1] = Aerosol performance of dry powder formulation for inhalation by MSLI (Multi Step Liquid Impinger); conditions: dose 8 mg
From the text: As discussed below Andolast disodium salt as Form A can be formulated according to several pharmaceutical compositions.

[2] = Moisture sorption/desorption by Differential Vapor Sorption (DVS); conditions: for R.H. at which substantial desorption (loss of water) starts: DVS scanning mode, 5% ΔR.H. per hour
Experimental: The moisture sorption/desorption behavior was analyzed for different solids using Differential Vapor Sorption (DVS) technique. In FIG. 8 is reported as an example the sorption/desorption isotherms for batch B/6272. […] Though the different batches were not characterized by exactly matching DVS diagrams all reached the about 20% water content after an appropriate time.
This surprising stability to moisture of Form A is also confirmed by DVS experiments. In the scanning mode, water is only lost when about 0% R.H. is reached. Moisture sorption/desorption behavior for the pentahydrate is reported in Example 9 (FIG. 14).
Water vapor sorption/desorption was analyzed using Surface Measurement System Ltd. DVS-1 apparatus. The sample was allowed to equilibrate at 50% R.H. before starting a predefinite humidity program, scanning with 5% ΔR.H. hour^−1 and with several “isohumid” equilibration periods (see FIG. 14 for details). The water content of the sample used for DVS was calculated on the basis of KF analysis, while crystalline form was assessed by FT-Raman spectroscopy. The DVS plots of water content vs. R.H. and R.H. vs. time are reported for Andolast disodium pentahydrate (Form A) in FIG. 14. It can be seen from the DVS plot that substantial desorption starts only at almost 0% RH.

[3] = Stability to temperature and mechanical mill (Example 10); conditions: open sample 1 day at 50° C., then milled 10 min at 24 s−1 in ball swing mill
Experimental: about 1 g of Andolast disodium salt Form A was stored, as open sample, for 1 day at 50° C. The product was then milled for 10 min. at 24 s−1 in a ball swing mill. A sample was then analyzed by KF and FT-Raman spectroscopy.

[4] = ICH accelerated stability testing
[5] = Stability of crystalline form to jet mill micronization (Example 11); conditions: MC Jet Mill, nitrogen, 12 bar, about 10 g/30 sec, without cooling
From the text: In Example 11 it is reported how Form A can be successfully micronized using conditions identical to the ones used for the micronization of the batch B/7081 (see FIGS. 7a and 7b for XRPD spectra) without altering XRPD and spectroscopic characteristics (Ft-Raman and FT-IR), thus proving Form A stability and crystalline form consistency also after the micronization step affording the suitable drug substance for preparing dry powder and pressurized HFA aerosols formulations for inhalation.
Andolast disodium form A is micronized, without cooling, using an MC Jet Mill apparatus, and nitrogen as carrier gas, at 12 bar and with a feeding rate of about 10 g/30 sec.

[6] = Storage of open samples in humidity controlled chamber (stability to moisture, Example 8); conditions: 9 days; for FT-Raman / KF (water content) / XRPD: open sample
From the text: The list of improved physical and mechanical characteristics reported below is intended at documenting representative examples of advantages Form A is endowed with over the undefined hydrated forms obtained according to uncontrolled conditions.
samples of Form A were stored, as open samples, in an humidity controlled chamber for 9 days, in Table 5 water content (KF), XRPD and FT-Raman spectra at the end-point of the experiment are reported vs. R.H. […]

[7] = Solubility of the disodium salt in water; conditions: 25° C.
Experimental: N-4-(1H-tetrazol-5-yl)phenyl-4-(1H-tetrazol-5-yl)benzamide is prepared as described in WO 90/09989, Example 13 (herein incorporated by reference). The disodium salt of N-4-(1H-tetrazol-5-yl)phenyl-4-(1H-tetrazol-5-yl)benzamide can be prepared directly as the pentahydrate or precipitated as an undefined mixture of hydrates and then converted into the pentahydrate (Form A), by re-crystallization or by phase equilibration (slurry conversion: slurry in an appropriate solvent mixture). In both cases the disodium salt is obtained by adding to a suspension in water of N-4-(1H-tetrazol-5-yl)phenyl-4-(1H-tetrazol-5-yl)benzamide, an amount of aqueous sodium hydroxide or sodium alkoxide, ranging from 2.0 to 2.2 equivalents, preferably 2.1 equivalents, being sodium methoxide, sodium ethoxide and sodium isopropoxide the preferred alkoxide, at a temperature ranging from +15° to +40° C. […] The resulting mixture is stirred until the solid is completely dissolved, then the pH of the solution is carefully adjusted to 6.5-7.5, by addition of diluted hydrochloric acid, filtered and concentrated under vacuum, at a temperature not exceeding +60° C. […]

[8] = active ingredient/excipient 1:1, Mean of 6 MSLI runs, listed as Form A obtained at Example 3
[9] = active ingredient/excipient 1:1, capsule inhaler, single MSLI runs 1-6, listed as Form A obtained at Example 3
[10] = active ingredient/excipient 1:1, Mean of 6 MSLI runs
[11] = active ingredient/excipient 1:1, capsule inhaler, single MSLI runs 1-6

O=C(Nc1ccc(-c2nn[n-]n2)cc1)c1ccc(-c2nn[n-]n2)cc1.[Na+].[Na+] [Example 3]
DD (Delivered Dose) [1, 8]: 7.46 mg | FPD (Fine Particle Dose) [1, 8]: 2.16 mg | FPF (Fine Particle Fraction) [1, 8]: 29% | MD (Metered Dose) [1, 8]: 8.48 mg | MMAD [1, 8]: 3.8 μm | DD (Delivered Dose) [1, 9]: 7.25 mg and 7.54 mg and 7.47 mg and 7.33 mg and 7.71 mg and 7.43 mg | FPD (Fine Particle Dose) [1, 9]: 1.96 mg and 2.07 mg and 2.58 mg and 1.97 mg and 2.18 mg and 2.20 mg | FPF (Fine Particle Fraction) [1, 9]: 27% and 35% and 28% and 30% | MD (Metered Dose) [1, 9]: 8.31 mg and 8.67 mg and 8.46 mg and 8.33 mg and 8.49 mg and 8.60 mg | MMAD [1, 9]: 3.8 μm and 4.0 μm and 3.6 μm and 3.9 μm

O=C(Nc1ccc(-c2nn[n-]n2)cc1)c1ccc(-c2nn[n-]n2)cc1.[Na+].[Na+] [B/7080, reference compound]
DD (Delivered Dose) [1, 10]: 6.63 mg | FPD (Fine Particle Dose) [1, 10]: 1.12 mg | FPF (Fine Particle Fraction) [1, 10]: 17% | MD (Metered Dose) [1, 10]: 7.55 mg | MMAD [1, 10]: 5.2 μm | DD (Delivered Dose) [1, 11]: 6.66 mg and 5.96 mg and 6.77 mg and 7.01 mg and 6.57 mg and 6.81 mg | FPD (Fine Particle Dose) [1, 11]: 0.96 mg and 0.99 mg and 1.21 mg and 1.01 mg and 1.23 mg and 1.30 mg | MD (Metered Dose) [1, 11]: 7.60 mg and 7.29 mg and 7.61 mg and 7.85 mg and 7.65 mg | MMAD [1, 11]: 5.3 μm and 5.2 μm and 5.1 μm and 5.4 μm

O=C(Nc1ccc(-c2nn[n-]n2)cc1)c1ccc(-c2nn[n-]n2)cc1.[Na+].[Na+] [Form A, N-4-(1H-tetrazol-5-yl)phenyl-4-(1H-tetra-zol-5yl)benzamide disodium salt]
R.H. at which substantial desorption (loss of water) starts ([2]; disodium salt): about 0 % RH | R.H. at which substantial desorption (loss of water) starts ([2]; listed as Andolast disodium pentahydrate (Form A), disodium salt): ~0 % RH | hygroscopic character of the solid ([2]; listed as Andolast disodium Form A, disodium salt): not hygroscopic | KF (water content) [3]: 19.53% | crystalline change by Raman spectra [3]: no crystalline change occurred | stability (physical form and chemical stability) [4]: confirmed its stability | changes in XRPD, FT-IR and FT-Raman versus not-micronized starting material [5]: no changes were observed | Stability to moisture (water content and solid form) ([6]; R.H. from 12% to 85%, room temperature): did not alter the water content of any sample, neither the solid form | FT-Raman ([6]; RH 12%): Complies with Form A | KF (water content) ([6]; RH 12%): 19.26% | XRPD ([6]; RH 12%): Complies with Form A | FT-Raman ([6]; RH 22%): Complies with Form A | KF (water content) ([6]; RH 22%): 19.36% | XRPD ([6]; RH 22%): Complies with Form A | FT-Raman ([6]; RH 32%): Complies with Form A | KF (water content) ([6]; RH 32%): 19.34% | XRPD ([6]; RH 32%): Complies with Form A | FT-Raman ([6]; RH 53%): Complies with Form A | KF (water content) ([6]; RH 53%): 19.35% | XRPD ([6]; RH 53%): Complies with Form A | FT-Raman ([6]; RH 65%): Complies with Form A | KF (water content) ([6]; RH 65%): 19.25% | XRPD ([6]; RH 65%): Complies with Form A | FT-Raman ([6]; RH 75%): Complies with Form A | KF (water content) ([6]; RH 75%): 19.22% | XRPD ([6]; RH 75%): Complies with Form A | FT-Raman ([6]; RH 85%): Complies with Form A | KF (water content) ([6]; RH 85%): 19.43% | XRPD ([6]; RH 85%): Complies with Form A

O=C(Nc1ccc(-c2nn[n-]n2)cc1)c1ccc(-c2nn[n-]n2)cc1.[Na+].[Na+] [B/6272, reference compound]
hygroscopic character of the solid [2]: strongly hygroscopic | water content at plateau of moisture sorption ([2]; DVS, continuous sorption of moisture): about 20%

O=C(Nc1ccc(-c2nn[n-]n2)cc1)c1ccc(-c2nn[n-]n2)cc1.[Na+].[Na+] [Andolast disodium salt, N-4-(1H-tetrazol-5-yl)phenyl-4-(1H-tetrazol-5-yl)benzamide disodium salt]
solubility [7]: ~150 mg/mL
